Data from EP3495372B1 (priority 2017, dated 2019).
Marks after values point to notes of the source that are not given here.

Assays:
[1] = system: differentiated SH-SY5Y human neuroblastoma cells; test: MTT assay, neuroprotective effects against Aβ1-42 cytotoxicity; assay type: cell-based; conditions: 24 h, read-out: increase in the cell viability (MTT assay)
Description: Cell cultures and differentiation: SH-SY5Y cell line were growth in DMEM:F12 (1:1) media including 10% FBS and 1% penicillin/streptomycin at 37 °C and 5% CO2 until cells reach confluence. Then, cells harvested via using trypsin/EDTA solution and transferred to 48 well plates. For differentiation, media were changed to supplemented media with 10 µg/mL retinoic acid and incubated for 5 days. Finally, media were changed into serum free media supplementing with both 10 µM retinoic acid and 25 ng/mL BDNF. Differentiated cells were determined under invert microscope and the cells were used within 10 days (Encinas M, Iglesias M, Liu Y, Wang H, Muhaisen A, Ceña V, Gallego C, Comella JX. Sequential treatment of SH-SY5Y cells with retinoic acid and brain-derived neurotrophic factor gives rise to fully differentiated, neurotrophic factor-dependent, human neuron-like cells. J. Neurochem. 2002; 75:991-1003 e Cheung YT, Lau WKW, Yu MS, Lai CSW, Yeung SC, So KF, Chang RCC. Effects of all-trans-retinoic acid on human SH-SY5Y neuroblastoma as in vitro model in neurotoxicity research. Neurotoxicol. 2009; 30:127-135).
(§1) Control cells (n = 6) were cultured under normal conditions. 1% Triton X, ascorbic acid (10 µM) and hydrogen peroxide (H2O2, 25 µM) were used as positive controls for cell viability, TAC and TOS analysis, respectively.
The cultures without BLA, MEM, or LA were studied as negative control group. 1% Triton-X was added to the culture media to provide negative control group. MTT reduction and LDH release observed after 24 h of Aβ1-42-exposure at 20 µM.

human neuron-like cells = test: Apoptosis-Necrosis assay (Annexin V-FITC/PI flow cytometry); assay type: cell-based; conditions: concentration not given
Description: Apoptosis-Necrosis assay: the frequencies of viable, apoptotic and necrotic cells were detected with the Annexin V-FITC apoptosis detection Kit I (BD Pharmingen, USA). Briefly, 5 x 10^4 cells were collected by centrifugation and cells resuspended in 500 µL of 1X binding buffer. Then, 5 µL of Annexin V-FITC and 5 µl of propidium iodide (PI 50 µg/ml) were added to the cultures and incubated 5 min in the dark. After that, cells fixed with 4% paraformaldehyde in phosphate buffered saline at 4 °C for 30 min. Cells from each well were stained according to the manufacturer's instructions and analyzed using a flow cytometer (CyFlow Cube 6, Partec, Germany). A computer system was used for data acquisition and analysis. Four different populations of cells are detected with the Annexin V-FITC kit: viable cells that are annexin negative and PI negative and express no fluorescence, early apoptotic cells that are annexin positive and PI negative and that express green fluorescence, late apoptotic/necrotic cells that are annexin positive and PI positive and that express green and orange fluorescence, necrotic cells that are annexin negative and PI positive and that express orange fluorescence (Majstorovic I, Vucevic D, Pavlovic B, Vasilijic S, Colic M. An anti-DEC-205 monoclonal antibody stimulates binding of thymocytes to rat thymic dendritic cells and promotes apoptosis of thymocytes. Cent Eur J Immunol. 2014; 39:411-418) .
BLA was considered as more able to protect the human neuron-like cells from Aβ1-42-induced necrosis and late apoptosis than LA or MEM.

[2] = system: differentiated SH-SY5Y human neuroblastoma cells; test: LDH assay, neuroprotective effects against Aβ1-42 cytotoxicity; assay type: cell-based; conditions: with 20 µM Aβ1-42, 24 h
Description: Cell cultures and differentiation: SH-SY5Y cell line were growth in DMEM:F12 (1:1) media including 10% FBS and 1% penicillin/streptomycin at 37 °C and 5% CO2 until cells reach confluence. Then, cells harvested via using trypsin/EDTA solution and transferred to 48 well plates. For differentiation, media were changed to supplemented media with 10 µg/mL retinoic acid and incubated for 5 days. Finally, media were changed into serum free media supplementing with both 10 µM retinoic acid and 25 ng/mL BDNF.
Cytotechnol. 2015; 67:299-309.
as §1
The cultures without BLA, MEM, or LA were studied as negative control group. 1% Triton-X was added to the culture media to provide negative control group.

[3] = system: differentiated SH-SY5Y cells; test: TAC and TOS analysis in cellular model of Alzheimer's disease; assay type: cell-based, human; conditions: co-treatment with Aβ1-42
Description: TAC and TOS analysis: the automated TAC and TOS assays were carried out by commercially available kits (Rel Assay^(R) Diagnostics, Gaziantep, Turkey) on samples from the cultures.
as §1
Figure 5 and 6 show the effects of BLA and MEM treatments on TAC and TOS levels in cellular model of Alzheimer's disease, respectively.

[4] = system: platelet aggregation induced by collagen; test: Optical aggregometry in platelet-rich plasma, aggregation induced by collagen; assay type: cell-based, human; conditions: Collagen (10 µg/mL)
Description: (§2) Blood Collection and Preparation of Platelet-Rich Plasma: blood was collected from healthy and non-smoking volunteers (all volunteers have signed informed consent) into a polypropylene tube containing 0.105 M buffered sodium citrate. None of the donors had received any medication known to affect platelet function for at least 10 days before blood collection. Platelet-rich plasma (PRP) was collected by the centrifugation of whole blood at 150 g for 15 min at room temperature. Subsequently, platelet-poor plasma (PPP) was collected by the centrifugation at 2000 g for 20 min at room temperature. The platelet count was adjusted to 2x10^8 cells /ml with PPP.
(§3) Incubation of PRP with BLA and LA: PRP was incubated with BLA and LA (25, 50, and 100 µM) for 15 minutes at 37 °C. PRP without any compound was used as a control.
(§4) Optical Aggregometry in Platelet-Rich Plasma: the measurement of platelet aggregation in PRP was performed using four-channel aggregometer (APACT 4004; LABiTec, Ahrensburg, Germany). After the incubation of PRP with three different compounds, platelet aggregation was stimulated by ADP (20 µM) and Collagen (10 µg/mL) and percentage of aggregation was monitored for 10 minutes. The percentage of aggregation, slope and shape change parameters were monitored for 10 minutes. Assay was started 1 hour after blood was collected and finished within 3 hours (Hao HZ, He AD, Wang DC, Yin Z, Zhou YJ, Liu G, Liang ML, Da XW, Yao GQ, Xie W, Xiang JZ, Ming ZY. Antiplatelet activity of loureirin A by attenuating Akt phosphorylation: In vitro studies. Eur. J. Pharmacol. 2015; 746:63-9).

[5] = system: platelet aggregation induced by ADP; test: Optical aggregometry in platelet-rich plasma, aggregation induced by ADP; assay type: cell-based, human; conditions: ADP (20 µM)
Description: as §2, §3, §4

## CC1(C)C2CC3OB(CNC(=O)CCCC[C@H]4CCSS4)O[C@]3(C)C1C2 (stereo partly drawn) [BLA, 5-((S)-1,2-dithiolan-3-yl)-N-(((3aR)-3a,5,5-trimethylhexahydro-4,6-methanobenzo[d][1,3,2]dioxaborol-2-yl)methyl)pentanamide]
[1]
  viability at 25 µM: 25.1%
  viability at 50 µM: 29.9%
  viability at 100 µM: 32.9%
Human neuron-like cells
  decreased the necrotic cell percentage by Aβ1-42: 68.38%
[2]; 25 µM
  increase in the cell viability (inhibited LDH release): 62.91%
[2]; 50 µM
  increase in the cell viability (inhibited LDH release): 67.37%
[2]; 100 µM
  increase in the cell viability (inhibited LDH release): 70.65%
[3]
  Aβ1-42-induced decreases of TAC and increases of TOS levels: modulated
[4]; 25 µM
  Max. Aggregation (%): 45.7* %
  Shape change (%): 24.7* %
  Slope (%): 41.4* %
[4]; 50 µM
  Max. Aggregation (%): 31.8* %
  Shape change (%): 10.2* %
  Slope (%): 30.8* %
[4]; 100 µM
  Max. Aggregation (%): 7.9* %
  Shape change (%): 5.6* %
  Slope (%): 25.5* %
[5]; 25 µM
  Max. Aggregation (%): 49,8* %
  Shape change (%): 12.1* %
  Slope (%): 66.7* %
[5]; 50 µM
  Max. Aggregation (%): 41.3* %
  Shape change (%): 10.3* %
  Slope (%): 51.5* %
[5]; 100 µM
  Max. Aggregation (%): 32.2* %
  Shape change (%): 6.8* %
  Slope (%): 47.3* %

## O=C(O)CCCCC1CCSS1 (stereo not shown) [LA, 1,2-dithiolane-3-pentanoic acid]
[1]
  viability at 25 µM: 14.8%
  viability at 50 µM: 19%
  viability at 100 µM: 20.7%
Human neuron-like cells
  decreased the necrotic cell percentage by Aβ1-42: 61.67%
[2]; 25 µM
  increase in the cell viability (inhibited LDH release): 53.05%
[2]; 50 µM
  increase in the cell viability (inhibited LDH release): 58.68%
[2]; 100 µM
  increase in the cell viability (inhibited LDH release): 59.86%
[3]
  Aβ1-42-induced decreases of TAC and increases of TOS levels: modulated
[4]; 25 µM
  Max. Aggregation (%): 47.9* %
  Shape change (%): 27.9* %
  Slope (%): 43.6* %
[4]; 50 µM
  Max. Aggregation (%): 41.6* %
  Shape change (%): 23.4* %
  Slope (%): 37.2* %
[4]; 100 µM
  Max. Aggregation (%): 35.8* %
  Shape change (%): 20.8* %
  Slope (%): 31,4* %
[5]; 25 µM
  Max. Aggregation (%): 55.8* %
  Shape change (%): 17.4* %
  Slope (%): 69.8* %
[5]; 50 µM
  Max. Aggregation (%): 47.8* %
  Shape change (%): 14.5* %
  Slope (%): 61.4* %
[5]; 100 µM
  Max. Aggregation (%): 44.6* %
  Shape change (%): 13.8* %
  Slope (%): 58.0* %
